Legend:
PGC-1α promoter = conditions: control C2C12 cells, AICAR treatment
Experimental: Wild-type and Jhdm2a knock-down C2C12 myotubes with or without AICAR treatment were used for ChIP followed by qPCR. Antibodies against H3K9me1 and H3K9me2 were used in the ChIP assays. Results were normalized to input, and are shown as fold of enrichment relative to that in the wild-type C2C12 cells without AICAR treatment. *p<0.05.
To determine whether PGC-1α is a direct target of JHDM2A, ChIP assays were performed. Ctrl or Jhdm2a KD C2C12 myotubes with or without AICAR treatment were used for ChIP analysis with histone modification-specific antibodies and anti-JHDM2A as described previously (Okada, Nature 450, 119 (2007)).

primary myotubes = experiment: AICAR-induced respiration (oxygen consumption) in primary myotubes; type: cell-based, mouse; conditions: wild-type (Jhdm2a+/+) primary myotubes, 500 μM AICAR for 16 hours
Experimental: Jhdm2a^+/+ and Jhdm2a^−/− primary myotubes were treated with 500 μM AICAR for 16 hours. Rates of oxygen consumption were normalized to cell counts. *p<0.05. The effect of Jhdm2a deficiency on energy expenditure was analyzed. Systemic energy expenditure includes basal metabolic rate, physical activity, and adaptive thermogenesis (Spiegelman, Cell 104, 531 (2001)). Metabolic studies were performed using TSE LabMaster calorimetry Module (TSE-System) in the Clinical Nutrition Research Unit at the University of North Carolina. For respiration measurements, cultured cells were resuspended in PBS. Oxygen consumption was measured using a Clarke-type electrode (Diamond General) at baseline, and after treatment with 10 μM isoproterenol (ISO) (Wu, Cell 98, 115 (1999)). For normalization of the respiration rates, an aliquot of the cells was lysed and protein concentration was measured. […] The decreased energy expenditure of the Jhdm2a KO mice was not a result of abnormal metabolic hormone secretion. […] Activation of AMPK signaling was determined by treating C2C12 myotubes with 800 μM AICAR (Sigma Aldrich) for 16 hours. […] To gain further support for the involvement of JHDM2A in AMPK-mediated mitochondrial function, the effect of Jhdm2a-deficiency on AMPK activation-mediated respiration in primary myotubes was measured.

Ucp1 enhancer = experiment: ChIP analysis at the Ucp1 enhancer in HIB1B cells after ISO treatment; type: cell-based; conditions: control HIB1B cells
Source text: The Jhdm2a knock-down-induced increase in H3K9me2 level could be partially rescued by overexpression of JHDM2A coupled with ISO treatment. *P<0.05.
Results are normalized to IgG, and are shown as the fold-enrichment relative to that in the control cells without ISO. *P<0.05.
The possibility that Jhdm2a directly regulates Ucp1 expression was subsequently examined. […] The binding was site-specific as Jhdm2a was not detected within the Ucp1 coding region, see FIG. 39, amplicon B).
In addition to removing the repressive H3K9me2 mark at the Ucp1 enhancer, Jhdm2a could contribute to Ucp1 activation by affecting the recruitment of transcription factors and co-activators. To examine this possibility, the effect of the loss of Jhdm2a on the recruitment of transcription factors (PPARγ, Rxrα and Atf2) and co-activators (Pgc1α, CBP/p300 and Src1) was analyzed. […] However, the enhanced binding by PPARγ and Rxra disappeared in the Jhdm2a knock-down cells, see FIG. 41. Similar results were also observed for the co-activators, see FIG. 42. […] Collectively, the data herein indicate that Jhdm2a contributes to β-adrenergic-stimulated Ucp1 activation by maintaining a low level of H3K9me2 at the Ucp1 enhancer region, and by augmenting the recruitment of PPARγ and Rxrα and their co-activators to the Ucp1 enhancer element.

HIB1B cells = experiment: qRT-PCR and western blot of Jhdm2a in HIB1B cells after ISO; type: cell-based
Experimental: Given that cold-induced Ucp1 upregulation is intact in the PPARα-deficient mice (Kersten, et al., J. Clin. Invest. 103:1489 (1999)), the possibility was explored that Jhdm2a directly regulates Ucp1 expression in response to cold exposure. To ascertain that the effect of Jhdm2a on Ucp1 expression was cell-intrinsic, short-hairpin RNA (shRNA)-mediated was performed in the brown adipose cell line HIB1B using lentivirus-based shRNA. To generate a Jhdm2a knock-down HIB1B cell line, undifferentiated cells were infected with a lentiviral virus expressing a shRNA for Jhdm2a or control. The shRNA sequence for Jhdm2a was 5′-GCAGGTGTCACTAGCCTTAAT-3′ (SEQ ID NO:76). The differentiation of HIB1B cells was performed as previously described (Ross, et al., Proc. Natl. Acad. Sci. USA 89:7561 (1992)). […] Importantly, enforced overexpression of human JHDM2A in the knock-down cells partially rescued Ucp1 expression, see FIG. 36B. […] ISO-induced upregulation of Pgcla was also maintained in HIB1B knock-down cells, see FIG. 38.

SMILES | H3K9me1 and H3K9me2 levels at the PGC-1α promoter (PGC-1α promoter) | respiration (rate of oxygen consumption) (primary myotubes) | H3K9me2 levels at the Jhdm2a binding site of the Ucp1 enhancer (Ucp1 enhancer) | binding of PPARγ, Rxrα and Atf2 to the Ucp1 enhancer (Ucp1 enhancer) | Jhdm2a messenger RNA and protein levels (HIB1B cells)
NC(=O)c1ncn([C@@H]2O[C@H](CO)[C@@H](O)[C@H]2O)c1N [AICAR] | decreased | increased respiration |  |  | 
CC(C)NCC(O)c1ccc(O)c(O)c1 (centres unmarked) [ISO, isoproterenol] |  |  | specifically decreased | increased | upregulated

— US20110138488A1, “DEFICIENCY IN THE HISTONE DEMETHYLASE JHDM2A RESULTS IN IMPAIRED ENERGY EXPENDITURE AND OBESITY” (priority 2008, published 2011)
